What all share (assay type): biochemical
Assay [1] concerns the target T1, Human recombinant MMP1 (Homo sapiens, UniProt P03956).
T1 sequence (P03956 100-469): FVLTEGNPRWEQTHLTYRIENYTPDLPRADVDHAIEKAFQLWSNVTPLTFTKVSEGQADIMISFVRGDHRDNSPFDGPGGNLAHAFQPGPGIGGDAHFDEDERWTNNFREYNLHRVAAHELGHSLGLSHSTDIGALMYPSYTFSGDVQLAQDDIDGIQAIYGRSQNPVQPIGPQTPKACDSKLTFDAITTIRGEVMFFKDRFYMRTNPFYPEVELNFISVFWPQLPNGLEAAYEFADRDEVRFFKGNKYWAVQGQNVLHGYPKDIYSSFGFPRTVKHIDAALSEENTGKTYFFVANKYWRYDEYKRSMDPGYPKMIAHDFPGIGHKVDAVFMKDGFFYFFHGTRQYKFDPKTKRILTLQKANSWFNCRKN
Kind of assay: MMP1 (Collagenase-1) inhibition, 14C collagen release. The following applies: 35° C., 5 hours; read-out: MMP-1 inhibitory activity, IC50.
Protocol: Protocol for Measuring MMP1 (Collagenase-1) Inhibition by Tetracycline Derivatives
MMP1 activity was determined by the release of soluble ^14C labelled collagen fragments from ^14C acetylated rat skin type I collagen (Methods in Enzymology 80 711, 1981).
• 100 μg ^14C labelled rat skin type I collagen (5–6000 dpm) • 50 mM Tris HCl pH 7.9 • 15 mM CaCl2 0.02% azide • Human recombinant MMP1 3–4 nM • ±Tetracycline (up to 1 mM) in a total volume of 300 μl.
Incubations were at 35° C. for 5 hours. Uncleaved collagen fibrils (which form within the first 10 minutes) were removed by centrifugation at 10,000 g, 4° C., 10 minutes. 200 μl supernatant were counted in Packard Opti Phase Supermix scintillation fluid using a scintillation counter. Only data derived from within the linear part of the assay (10–70% lysis of the collagen) were utilized. Based on percentage inhibition of the activity of MMP1 alone by a range of concentrations of each sample, the IC50 value for each tetracycline was calculated by linear regression analysis.

Assay [2] concerns the target T2, MMP2 (Gelatinase A) (Homo sapiens, UniProt P08253).
T2 sequence (P08253 110-660): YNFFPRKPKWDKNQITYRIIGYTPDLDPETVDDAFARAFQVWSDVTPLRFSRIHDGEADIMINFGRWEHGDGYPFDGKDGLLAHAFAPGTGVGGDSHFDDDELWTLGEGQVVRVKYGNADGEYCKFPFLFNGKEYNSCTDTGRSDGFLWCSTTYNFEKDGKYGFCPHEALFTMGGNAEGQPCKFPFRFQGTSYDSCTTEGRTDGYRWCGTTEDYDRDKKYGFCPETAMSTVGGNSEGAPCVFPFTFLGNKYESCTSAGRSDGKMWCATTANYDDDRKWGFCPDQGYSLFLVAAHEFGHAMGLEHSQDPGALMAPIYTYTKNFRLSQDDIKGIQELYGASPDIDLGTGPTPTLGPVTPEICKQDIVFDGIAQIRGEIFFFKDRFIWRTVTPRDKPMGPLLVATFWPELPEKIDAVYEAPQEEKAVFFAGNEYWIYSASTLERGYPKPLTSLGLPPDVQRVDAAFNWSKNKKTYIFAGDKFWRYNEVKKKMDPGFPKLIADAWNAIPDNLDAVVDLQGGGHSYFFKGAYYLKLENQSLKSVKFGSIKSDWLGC
Nature of the assay: MMP2 (Gelatinase A) inhibition, 14C gelatin release. The following applies: 37° C., 16 hours; read-out: MMP-2 inhibitory activity, IC50.

The target in assay [3] is Human recombinant MMP3 (Homo sapiens, UniProt P08254). Nature of the assay: MMP3 (Stromelysin 1) inhibition, 14C casein release. The following applies: 37° C., 16 hours; read-out: MMP-3 inhibitory activity, IC50.
Sequence of Human recombinant MMP3 (P08254 100-477): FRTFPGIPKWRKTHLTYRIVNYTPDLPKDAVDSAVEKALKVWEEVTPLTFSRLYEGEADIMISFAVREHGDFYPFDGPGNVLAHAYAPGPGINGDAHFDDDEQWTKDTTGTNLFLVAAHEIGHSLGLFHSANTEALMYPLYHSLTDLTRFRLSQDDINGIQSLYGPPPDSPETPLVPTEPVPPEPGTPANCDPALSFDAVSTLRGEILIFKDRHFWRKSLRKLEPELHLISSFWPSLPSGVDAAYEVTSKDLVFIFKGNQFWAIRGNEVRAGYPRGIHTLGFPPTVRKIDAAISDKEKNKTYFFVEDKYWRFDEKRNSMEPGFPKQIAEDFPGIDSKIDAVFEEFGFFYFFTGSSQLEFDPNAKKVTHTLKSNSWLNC
Protocol: Protocol for Measuring MMP3 (Stromelysin 1) Inhibition
• 100 μg ^14C casein (7000 dpm) • 50 mM Tris HCl, pH 7.9 • 15 mM CaCl2, 0.02% azide • Human recombinant MMP3, 0.25–1.0 nM • ±tetracycline (up to 1 mM) in a total volume of 250 μl.
Incubations were at 37° C. for 16 hours. The reaction was stopped by the addition of 500 μl cold 18% TCA and standing on ice for 15 minutes. TCA precipitates were removed by centrifugation at 10,000 g for 10 minutes at 4° C. and 200 μl supernatant was taken for scintillation counting. Only data derived from within the linear part of the assay (10–60% lysis) were utilized. The percentage inhibition of MMP3 by each concentration of the candidate tetracycline was plotted to derive the IC50 value, using linear regression analysis.
Assay [4] addresses Human recombinant MMP9 (Homo sapiens, UniProt P14780). Nature of the assay: MMP9 (Gelatinase B) inhibition, 14C gelatin release. The following applies: 37° C., 16 hours; read-out: MMP-9 inhibitory activity, IC50.
Assay [5] deals with Human recombinant MMP14 (Homo sapiens, UniProt P50281). Kind of assay: MMP14 (MTI-MMP) inhibition, 14C collagen release. The following applies: 35° C., 15 hours; read-out: MMP-14 inhibitory activity, IC50.

The text below walks through data of patent publication US7214669B2, “Tetracycline derivatives and methods of use thereof” (Tetragenex Pharmaceuticals, Inc., priority 2001, dated 2007).

Structures can show the parent of a compound that is named as a salt.

Sequence of Human recombinant MMP9 (P14780 94-707): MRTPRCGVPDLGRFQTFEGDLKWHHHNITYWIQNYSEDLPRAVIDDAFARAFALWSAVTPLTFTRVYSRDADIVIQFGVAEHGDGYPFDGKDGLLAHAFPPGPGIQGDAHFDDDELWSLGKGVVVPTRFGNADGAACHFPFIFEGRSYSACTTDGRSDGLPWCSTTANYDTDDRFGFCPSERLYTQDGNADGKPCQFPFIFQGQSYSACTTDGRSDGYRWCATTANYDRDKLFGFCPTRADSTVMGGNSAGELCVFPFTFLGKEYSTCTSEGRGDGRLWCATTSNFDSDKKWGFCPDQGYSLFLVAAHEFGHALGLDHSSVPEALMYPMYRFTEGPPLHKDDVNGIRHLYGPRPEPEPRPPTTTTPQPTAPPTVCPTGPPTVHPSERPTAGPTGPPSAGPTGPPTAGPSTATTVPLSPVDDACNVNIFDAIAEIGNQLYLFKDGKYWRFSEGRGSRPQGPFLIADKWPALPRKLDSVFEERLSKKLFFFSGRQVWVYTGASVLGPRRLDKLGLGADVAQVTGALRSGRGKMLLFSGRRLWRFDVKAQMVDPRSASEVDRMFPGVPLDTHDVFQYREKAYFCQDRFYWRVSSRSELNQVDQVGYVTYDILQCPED

As a reminder, the IC50 is the point on the concentration scale where inhibition reaches its midpoint. In the case of `CCCCN(CCCC)c1ccc(O)c2c1C(C)C1C(=C(O)C3(O)C(=O)C(C(N)=O)=C(O)C(N(C)C)C3C1O)C2=O` (stereo not shown) [Compound 17, 7-Di-n-Butylamino-6-deoxy-5-hydroxytetracycline H2SO4], the half-inhibitory concentration (IC50) in assay [1] is 122 µM; in assay [2] it was > 1000 µM; in assay [3], 350 µM; in assay [4] it was 110 µM; in assay [5], 98 µM.
As to `CCCCCCN(CCCCCC)c1ccc(O)c2c1C(C)C1C(=C(O)C3(O)C(=O)C(C(N)=O)=C(O)C(N(C)C)C3C1O)C2=O` (stereo not shown) [Compound 18, 7-Di-n-Hexylamino-6-deoxy-5-hydroxytetracycline H2SO4], the 50% inhibitory concentration (IC50) came out at 123 µM in assay [1]; 233 µM in assay [2]; 335 µM in assay [3]; 131 µM in assay [4]; 102 µM in assay [5].
The corresponding values for `CC1c2c(N(CCC(C)(C)C)CCC(C)(C)C)ccc(O)c2C(=O)C2=C(O)C3(O)C(=O)C(C(N)=O)=C(O)C(N(C)C)C3C(O)C21` (stereo not shown) [Compound 19, 7-Di-(3,3-dimethylbutyl)amino-6-deoxy-5-hydroxytetracycline H2SO4] are 270 µM, 925 µM, 394 µM, 98 µM and 90 µM.
For `CC1c2c(N=[N+]=[N-])ccc(O)c2C(=O)C2=C(O)C3(O)C(=O)C(C(N)=O)=C(O)C(N(C)C)C3C(O)C21` (stereo not shown) [Compound 20, 7-Azido-6-deoxy-5-hydroxy-tetracycline H2SO4] the same measures were 429 µM, 511 µM, 281 µM, 162 µM and 266 µM.
On to `CC1c2c([N+]#N)ccc(O)c2C(=O)C2=C(O)C3(O)C(=O)C(C(N)=O)=C(O)C(N(C)C)C3C(O)C21` (stereo not shown) [Compound 21, 6-Deoxy-5-hydroxytetracycline-7-diazonium H2SO4], for which the IC50 is 293 µM in assay [1]; > 1000 µM in assay [2]; > 1000 µM in assay [3]; 79 µM in assay [4]; 115 µM in assay [5].
Consider `CC(=O)Nc1cc([N+](=O)[O-])c(O)c2c1C(C)C1C(=C(O)C3(O)C(=O)C(C(N)=O)=C(O)C(N(C)C)C3C1O)C2=O` (stereo not shown) [Compound 22, 7-Acetamido-9-nitro-6-deoxy-5-hydroxytetracycline H2SO4], for which the IC50 was 396 µM in assay [1]; 254 µM in assay [2]; 462 µM in assay [3]; 341 µM in assay [4]; 459 µM in assay [5].
Regarding `CC(=O)Nc1ccc(O)c2c1C(C)C1C(=C(O)C3(O)C(=O)C(C(N)=O)=C(O)C(N(C)C)C3C1O)C2=O` (stereo not shown) [Compound 23, 7-Acetamido-6-deoxy-5-hydroxytetracycline H2SO4], the IC50 in assay [1] is > 1000 µM; in assay [2], 306 µM; in assay [3], > 1000 µM; in assay [4] it was > 1000 µM; in assay [5], > 1000 µM.
Turning to `CCCN(CCC)c1ccc(O)c2c1C(C)C1C(=C(O)C3(O)C(=O)C(C(N)=O)=C(O)C(N(C)C)C3C1O)C2=O` (stereo not shown) [Compound 24, 7-Di-n-propylamino-6-deoxy-5-hydroxytetracycline H2SO4], the IC50 in assay [1] worked out at 405 µM; in assay [2], 724 µM; in assay [3], 191 µM; in assay [4], 127 µM; in assay [5], 160 µM.
Turning to `CC(C)CNc1ccc(O)c2c1C(C)C1C(=C(O)C3(O)C(=O)C(C(N)=O)=C(O)C(N(C)C)C3C1O)C2=O` (stereo not shown) [Compound 25, 7-Isobutylamino-6-deoxy-5-hydroxytetracycline H2SO4], the half-maximal inhibitory concentration (IC50) in assay [1] worked out at 974 µM; in assay [2], 397 µM; in assay [3] it was 303 µM; in assay [4] it was 148 µM; in assay [5], 185 µM.
For `CC(=O)Nc1cc(N)c(O)c2c1C(C)C1C(=C(O)C3(O)C(=O)C(C(N)=O)=C(O)C(N(C)C)C3C1O)C2=O` (stereo not shown) [Compound 26, 7-Acetamido-9-amino-6-deoxy-5-hydroxytetracycline H2SO4] the same measures were > 1000 µM, 413 µM, > 1000 µM, 384 µM and 586 µM.
The corresponding values for `CC(=O)Nc1cc([N+]#N)c(O)c2c1C(C)C1C(=C(O)C3(O)C(=O)C(C(N)=O)=C(O)C(N(C)C)C3C1O)C2=O` (stereo not shown) [Compound 30, 7-Acetamido-6-deoxy-5-hydroxytetracycline-9-diazonium H2SO4] are 576 µM, > 1000 µM, 938 µM, > 1000 µM and > 1000 µM.
The corresponding values for `C[C@H]1c2c(N(C)C)cc([N+]#N)c(O)c2C(=O)C2=C(O)[C@]3(O)C(=O)C(C(N)=O)=C(O)[C@@H](N(C)C)[C@@H]3[C@@H](O)[C@@H]21` [Compound 31, 7-Dimethylamino-6-deoxy-5-hydroxytetracycline-9-diazonium H2SO4] are 621 µM, 258 µM, > 1000 µM, 311 µM and 593 µM.
In the case of `CC1c2c(NC3CCC3)ccc(O)c2C(=O)C2=C(O)C3(O)C(=O)C(C(N)=O)=C(O)C(N(C)C)C3C(O)C21` (stereo not shown) [Compound 32, 7-Cyclobutylamino-6-deoxy-5-hydroxytetracycline H2SO4], the IC50 in assay [1] is 601 µM; in assay [2], 236 µM; in assay [3] it was 244 µM; in assay [4] it was 214 µM; in assay [5], 197 µM.
For the molecule `CC1c2cccc(O)c2C(=O)C2=C(O)C3(O)C(=O)C(C(N)=O)=C(O)CC3C(O)C21` (stereo not shown) [Compound 34, 4-Dedimethylamino-6-deoxy-5-hydroxytetracycline], the IC50 in assay [1] was 242 µM; in assay [2] it was 242 µM; in assay [3], 136 µM; in assay [4] it was 308 µM; in assay [5], 197 µM.
With `CC1c2ccc([N+](=O)[O-])c(O)c2C(=O)C2=C(O)C3(O)C(=O)C(C(N)=O)=C(O)CC3C(O)C21` (stereo not shown) [Compound 35, 4-Dedimethylamino-6-deoxy-5-hydroxy-9-nitrotetracycline], the IC50 in assay [1] was found to be 947 µM; in assay [2] it was 249 µM; in assay [3], 218 µM; in assay [4] it was 397 µM; in assay [5], 108 µM.
For `CC1c2ccc(N)c(O)c2C(=O)C2=C(O)C3(O)C(=O)C(C(N)=O)=C(O)CC3C(O)C21` (stereo not shown) [Compound 36, 9-animo-4-dedimethylamino-6-deoxy-5-hydroxytetracycline sulfate] the same measures were 539 µM, > 1000 µM, 283 µM, > 1000 µM and 608 µM.
As to `C[C@H]1c2c(N)ccc(O)c2C(=O)C2=C(O)[C@]3(O)C(=O)C(C(N)=O)=C(O)C[C@@H]3[C@@H](O)[C@@H]21` [Compound 48, 4-Dedimethylamino-7-amino-6-deoxy-5-hydroxyltetracycline H2SO4], the concentration for half-maximal inhibition (IC50) in assay [1] was 12800 µM; in assay [2] it was 1930 µM; in assay [3], 506 µM; in assay [4], 424 µM; in assay [5] it was 354 µM.
